Test results: patent publication US11384126B2, “Compositions and methods for inhibiting DHHC-type palmitoyltransferases for cancer treatment” (DANA-FARBER CANCER INSTITUTE, INC., priority 2017, dated 2022)

What was measured:
DHHC proteins = conditions: literature: Jennings et al., 2008; cited from earlier work
MDA-MB-231 cells = assay: apoptotic cell death, caspase-3 blot after chemotherapeutic agents; type: cell-based, human; conditions: for cell sensitivity to drug (apoptotic cell death, caspase-3) when zDHHC3 is ablated: MDA-MB-231, 25 hr, D3 shRNA vs control shRNA, Camptothecin 2 μM, Gefitinib 50 μM, 5-Fluorouracil 10 μg/ml
Method: Specifically, human breast carcinoma MDA-MB-231 cells were treated with Camptothecin (2 μM), Gefitinib (50 μM), 5-Fluorouracil (10 μg/ml), or DMSO (vehicle control), for 25 hr, lysed, then blotted for caspase-3, to assess apoptotic cell death. C=control shRNA; D3=stable DHHC3 ablation; D3^R=shRNA knockdown cells reconstituted with wild type DHHC3; D3^M=mutant DHHC3 (inactivated by C→S active site mutation).

[1] = tested on: ZDHHC3-ablated MDA-MB-231 cells; assay: oxidative stress/ROS, CellROX dye, flow cytometry; type: cell-based, human; conditions: for effect on oxidative stress/ROS elevated by ZDHHC3 ablation: ZDHHC3-ablated MDA-MB-231 cells, CellROX; for direct and indirect effects of oxidative stress in ZDHHC3-ablated cells: summary statement
Method: To assess oxidative stress/reactive oxygen species (ROS), control and ZDHHC3-ablated tumor cells were trypsinized and suspended in complete medium. After PBS wash, cells were loaded with 2 μM CellROX dye in complete medium (37° C., 30 min). Cells were then washed twice with IX PBS, incubated in complete media (37° C., 30 min), washed twice again with 1×PBS, and then analyzed by flow cytometry. Similarly, senescence was measured by loading suspended control and ZDHHC3 ablated cells with C12FDG dye (30 min, 37° C.) in complete medium. The C12FDG dye is converted by intracellular β-galactosidase (elevated in senescent cells) to produce fluorescence, which was quantitated by flow cytometry. […] Increased oxidative stress can decrease tyrosine phosphatase activities (Tanner et al., 2011 Antioxid Redox Signal, 15:77-97), which can elevate tyrosine phosphorylation of focal adhesion kinase (FAK) and STAT3 proteins (Carballo et al., 1999 J Biol Chem, 274:17580-6; Ben et al., 2000 IUBMB Life, 50:291-9).

ZDHHC3-ablated cells = assay: senescence, C12FDG dye (β-galactosidase), flow cytometry; type: cell-based, human; conditions: summary statement
Method: To assess oxidative stress/reactive oxygen species (ROS), control and ZDHHC3-ablated tumor cells were trypsinized and suspended in complete medium. After PBS wash, cells were loaded with 2 μM CellROX dye in complete medium (37° C., 30 min). Cells were then washed twice with IX PBS, incubated in complete media (37° C., 30 min), washed twice again with 1×PBS, and then analyzed by flow cytometry. Similarly, senescence was measured by loading suspended control and ZDHHC3 ablated cells with C12FDG dye (30 min, 37° C.) in complete medium. The C12FDG dye is converted by intracellular β-galactosidase (elevated in senescent cells) to produce fluorescence, which was quantitated by flow cytometry.

[2] = tested on: focal adhesion kinase (FAK); assay: FAK tyrosine phosphorylation, immunoprecipitation and western blotting; type: cell-based, human; conditions: control and ZDHHC3-ablated MDA-MB-231 cells, FIG. 2C upper panels
Description: Increased oxidative stress can decrease tyrosine phosphatase activities (Tanner et al., 2011 Antioxid Redox Signal, 15:77-97), which can elevate tyrosine phosphorylation of focal adhesion kinase (FAK) and STAT3 proteins (Carballo et al., 1999 J Biol Chem, 274:17580-6; Ben et al., 2000 IUBMB Life, 50:291-9).

MCP-1 = MCP-1 secretion (senescence-associated), western blotting; type: cell-based, human; conditions: MDA-MB-231 cells, FIG. 2C bottom panel
Method: Cells were cultured in DMEM and/or RPMI medium (Invitrogen, Grand Island, N.Y.) containing 10% FBS (Sigma, Mo.), HEPES and 1% penicillin-streptomycin (Invitrogen, Grand Island, N.Y.). […] Cultured cells were lysed in 1% Triton X-100, and total protein was quantified using BCA protein estimation kit. Western blotting and relative band intensity densitometry were described previously (Sharma et al., 2012 Cell Mol Life Sci, 69:2233-44).

| Structure (SMILES) | cell sensitivity to drug (apoptotic cell death, caspase-3) when zDHHC3 is ablated (MDA-MB-231 cells) | direct and indirect effects of oxidative stress in ZDHHC3-ablated cells [1] | increased senescence measured by β-galactosidase activity and/or SASP marker MCP-1 (ZDHHC3-ablated cells) | effect on ZDHHC3 ablation-induced FAK tyrosine phosphorylation [2] | MCP-1 upregulation in ZDHHC3-ablated cells (MCP-1) | other results |
| --- | --- | --- | --- | --- | --- | --- |
| O=C1C(=Cc2cc([N+](=O)[O-])ccc2O)Sc2ccccc21 [2-(2-hydroxy-5-nitro-benzylidene)-benzo[b]thiophen-3-one] |  |  |  |  |  | palmitoyltransferase activity of all DHHC proteins tested (DHHC proteins): inhibited |
| CCCCCCCCCCCCCCC(Br)C(=O)O (stereo not drawn) [2-bromopalmitate] |  |  |  |  |  | palmitoyltransferase activity of all DHHC proteins tested (DHHC proteins): inhibited |
| O=c1[nH]cc(F)c(=O)[nH]1 [5-Fu, 5-Fluorouracil] | enhanced |  |  |  |  |  |
| COc1cc2ncnc(Nc3ccc(F)c(Cl)c3)c2cc1OCCCN1CCOCC1 [Gefitinib] | not enhanced |  |  |  |  |  |
| CC(=O)N[C@@H](CS)C(=O)O [NAC, N-acetyl cysteine] |  | substantially reversed | substantially reversed | substantially prevented | markedly diminished | effect on oxidative stress/ROS elevated by ZDHHC3 ablation [1]: substantially prevented; effect on oxidative stress/ROS elevated by ZDHHC3 ablation ([1]; listed as N-acetyl cysteine): partial reversal |
| CC(C)c1c(C(=O)Nc2ccccc2)c(-c2ccccc2)c(-c2ccc(F)cc2)n1CC[C@@H](O)C[C@@H](O)CC(=O)O [atorvastatin] |  | substantially reversed | substantially reversed | substantially prevented | markedly diminished |  |
| CC[C@@]1(O)C(=O)OCc2c1cc1n(c2=O)Cc2cc3ccccc3nc2-1 [camptothecin] | enhanced |  |  |  |  | cell sensitivity to drug (caspase-3) with inactive DHHC3 (D3M) compared to fully functional DHHC3 (D3R) (MDA-MB-231 cells; zDHHC3-ablated MDA-MB-231 reconstituted, lane 10 vs lane 9): markedly enhanced |
| O=C(O)CCCCC1CCSS1 (stereo not drawn) [α-LA, α-lipoic acid] |  | substantially reversed | substantially reversed | substantially prevented | markedly diminished | effect on oxidative stress/ROS elevated by ZDHHC3 ablation [1]: substantially prevented |
